Measurements published in the supplement of paper PMC10307832.

Legend:
Assay in all cases: relative viability (nuclei count vs DMSO), 5 days (fraction); higher = more cells survive
A-427 = test system: A-427
Summary of the method: (§1)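 Relative viability divides the nuclei count in treated wells by that in vehicle wells. Lung cancer cell lines were seeded in 1536-well plates, dosed by pin tool the next day, and fixed and stained after 5 days in one step with final 0.05% Triton X-100, 1% formaldehyde and 1 ug/ml Hoechst. Dosing was a single drug or a fixed anchor-drug dose plus five library-drug doses (not always all listed) in √10 steps, and values are medians of duplicate plates imaged at 4×.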

COR-L 105 = test system: COR-L 105
Summary of the method: as §1

ChaGo-K-1 = test system: ChaGo-K-1
Summary of the method: as §1

EKVX = test system: EKVX
Summary of the method: as §1

EMC-BAC-2 = test system: EMC-BAC-2
Summary of the method: as §1

H3255 = test system: H3255
Summary of the method: as §1

HCC-366 = test system: HCC-366
Summary of the method: as §1

LK-2 = test system: LK-2
Summary of the method: as §1

LOU-NH91 = test system: LOU-NH91
Summary of the method: as §1

NCI-H1666 = test system: NCI-H1666
Summary of the method: as §1

NCI-H1734 = test system: NCI-H1734
Summary of the method: as §1

NCI-H1755 = test system: NCI-H1755
Summary of the method: as §1

NCI-H1975 = test system: NCI-H1975
Summary of the method: as §1

NCI-H2170 = test system: NCI-H2170
Summary of the method: as §1

NCI-H23 = test system: NCI-H23
Summary of the method: as §1

NCI-H441 = test system: NCI-H441
Summary of the method: as §1

NCI-H520 = test system: NCI-H520
Summary of the method: as §1

NCI-H596 = test system: NCI-H596
Summary of the method: as §1

PC-3 [JPC-3] = test system: PC-3 [JPC-3]
Summary of the method: as §1

SK-MES-1 = test system: SK-MES-1
Summary of the method: as §1

## Cc1sc2c(c1C)C(c1ccc(Cl)cc1)=N[C@@H](CC(=O)OC(C)(C)C)c1nnc(C)n1-2 [JQ1] + CC1(C)CCC(c2ccc(Cl)cc2)=C(CN2CCN(c3ccc(C(=O)NS(=O)(=O)c4ccc(N[C@H](CCN5CCOCC5)CSc5ccccc5)c(S(=O)(=O)C(F)(F)F)c4)cc3)CC2)C1 [Navitoclax] (partner 0.5 µM)
A-427; first compound 0.04 µM
  relative viability: 0.997
A-427; first compound 0.1265 µM
  relative viability: 0.974
A-427; first compound 0.4 µM
  relative viability: 1
A-427; first compound 1.265 µM
  relative viability: 0.854
A-427; first compound 4 µM
  relative viability: 0.784
COR-L 105; first compound 0.04 µM
  relative viability: 0.707
COR-L 105; first compound 0.1265 µM
  relative viability: 0.567
COR-L 105; first compound 0.4 µM
  relative viability: 0.462
COR-L 105; first compound 1.265 µM
  relative viability: 0.282
COR-L 105; first compound 4 µM
  relative viability: 0.326
ChaGo-K-1; first compound 0.04 µM
  relative viability: 1.08
ChaGo-K-1; first compound 0.4 µM
  relative viability: 0.868
ChaGo-K-1; first compound 1.265 µM
  relative viability: 0.405
ChaGo-K-1; first compound 4 µM
  relative viability: 0.481
EKVX; first compound 0.04 µM
  relative viability: 0.945
EKVX; first compound 0.1265 µM
  relative viability: 0.827
EKVX; first compound 0.4 µM
  relative viability: 0.96
EKVX; first compound 1.265 µM
  relative viability: 0.802
EKVX; first compound 4 µM
  relative viability: 0.685
EMC-BAC-2; first compound 0.04 µM
  relative viability: 1.18
EMC-BAC-2; first compound 0.1265 µM
  relative viability: 1.18
EMC-BAC-2; first compound 0.4 µM
  relative viability: 1.01
EMC-BAC-2; first compound 1.265 µM
  relative viability: 0.61
EMC-BAC-2; first compound 4 µM
  relative viability: 0.658
H3255; first compound 0.04 µM
  relative viability: 0.495
H3255; first compound 0.1265 µM
  relative viability: 0.441
H3255; first compound 0.4 µM
  relative viability: 0.566
H3255; first compound 1.265 µM
  relative viability: 0.268
H3255; first compound 4 µM
  relative viability: 0.258
HCC-366; first compound 0.04 µM
  relative viability: 1.05
HCC-366; first compound 0.4 µM
  relative viability: 0.915
HCC-366; first compound 1.265 µM
  relative viability: 0.63
HCC-366; first compound 4 µM
  relative viability: 0.115
LK-2; first compound 0.04 µM
  relative viability: 0.89
LK-2; first compound 0.1265 µM
  relative viability: 0.785
LK-2; first compound 0.4 µM
  relative viability: 0.562
LK-2; first compound 1.265 µM
  relative viability: 0.255
LK-2; first compound 4 µM
  relative viability: 0.243
LOU-NH91; first compound 0.04 µM
  relative viability: 0.637
LOU-NH91; first compound 0.1265 µM
  relative viability: 0.606
LOU-NH91; first compound 0.4 µM
  relative viability: 0.413
LOU-NH91; first compound 1.265 µM
  relative viability: 0.411
LOU-NH91; first compound 4 µM
  relative viability: 0.429
NCI-H1666; first compound 0.04 µM
  relative viability: 0.926
NCI-H1666; first compound 0.1265 µM
  relative viability: 0.899
NCI-H1666; first compound 0.4 µM
  relative viability: 0.787
NCI-H1666; first compound 1.265 µM
  relative viability: 0.438
NCI-H1666; first compound 4 µM
  relative viability: 0.513
NCI-H1734; first compound 0.04 µM
  relative viability: 0.849
NCI-H1734; first compound 0.1265 µM
  relative viability: 0.825
NCI-H1734; first compound 0.4 µM
  relative viability: 0.83
NCI-H1734; first compound 1.265 µM
  relative viability: 0.407
NCI-H1734; first compound 4 µM
  relative viability: 0.233
NCI-H1755; first compound 0.04 µM
  relative viability: 1.01
NCI-H1755; first compound 0.1265 µM
  relative viability: 0.991
NCI-H1755; first compound 0.4 µM
  relative viability: 0.922
NCI-H1755; first compound 1.265 µM
  relative viability: 0.59
NCI-H1755; first compound 4 µM
  relative viability: 0.455
NCI-H1975; first compound 0.04 µM
  relative viability: 1.1
NCI-H1975; first compound 0.1265 µM
  relative viability: 0.715
NCI-H1975; first compound 0.4 µM
  relative viability: 0.821
NCI-H1975; first compound 1.265 µM
  relative viability: 0.336
NCI-H1975; first compound 4 µM
  relative viability: 0.266
NCI-H2170; first compound 0.04 µM
  relative viability: 0.652
NCI-H2170; first compound 0.1265 µM
  relative viability: 0.641
NCI-H2170; first compound 0.4 µM
  relative viability: 0.452
NCI-H2170; first compound 1.265 µM
  relative viability: 0.279
NCI-H2170; first compound 4 µM
  relative viability: 0.285
NCI-H23; first compound 0.04 µM
  relative viability: 0.687
NCI-H23; first compound 0.1265 µM
  relative viability: 0.781
NCI-H23; first compound 0.4 µM
  relative viability: 0.62
NCI-H23; first compound 1.265 µM
  relative viability: 0.395
NCI-H23; first compound 4 µM
  relative viability: 0.144
NCI-H441; first compound 0.04 µM
  relative viability: 0.834
NCI-H441; first compound 0.1265 µM
  relative viability: 0.684
NCI-H441; first compound 0.4 µM
  relative viability: 0.54
NCI-H441; first compound 1.265 µM
  relative viability: 0.528
NCI-H441; first compound 4 µM
  relative viability: 0.408
NCI-H520; first compound 0.04 µM
  relative viability: 1.1
NCI-H520; first compound 0.1265 µM
  relative viability: 1.19
NCI-H520; first compound 0.4 µM
  relative viability: 0.905
NCI-H520; first compound 1.265 µM
  relative viability: 0.404
NCI-H520; first compound 4 µM
  relative viability: 0.297
NCI-H596; first compound 0.04 µM
  relative viability: 1.17
NCI-H596; first compound 0.1265 µM
  relative viability: 1.03
NCI-H596; first compound 0.4 µM
  relative viability: 0.421
NCI-H596; first compound 1.265 µM
  relative viability: 0.236
NCI-H596; first compound 4 µM
  relative viability: 0.23
PC-3 [JPC-3]; first compound 0.04 µM
  relative viability: 0.781
PC-3 [JPC-3]; first compound 0.1265 µM
  relative viability: 0.877
PC-3 [JPC-3]; first compound 0.4 µM
  relative viability: 0.942
PC-3 [JPC-3]; first compound 1.265 µM
  relative viability: 0.644
PC-3 [JPC-3]; first compound 4 µM
  relative viability: 0.499
SK-MES-1; first compound 0.04 µM
  relative viability: 1.29
SK-MES-1; first compound 0.1265 µM
  relative viability: 1.07
SK-MES-1; first compound 0.4 µM
  relative viability: 1.12
SK-MES-1; first compound 1.265 µM
  relative viability: 0.477
SK-MES-1; first compound 4 µM
  relative viability: 0.264
